Columns and labels:
BiP mRNA [1] = experiment: SA spraying of tobacco plants, Northern blot of BiP mRNA; type: in vivo, Nicotiana tabacum
Method: It has been shown that SA is involved in the induction of PR genes (reviewed by Malamy and Klessig, 1992) and that this signal molecule also induces the expression of ER chaperones (Denecke et al, 1995). We wanted to investigate whether ER chaperone induction is a consequence of the high synthesis rates of PR genes and used BiP as a model system. Tobacco plants were sprayed with SA (5 mM) and the exact timing of the SA-mediated induction of PR-gene PRI was compared to that of BiP. PR1 was chosen as a representative marker for SA-mediated induction of PR genes as its response to SA is faster and more pronounced than that of acidic chitinase, basic chitinase and basic β-1.3 glucanase (Vidal et al, 1997). […] In contrast SA-induced transcription of PR1 starts only after 6-8 hours and continues to accumulate upto 16 hours after treatment. At this time-point, BiP mRNA levels start to decrease again. We have shown previously that PR1 continuous to accumulate until 48 hours after SA treatment using the same experimental system (Vidal et al, 1997). […] BiP protein levels were also shown to increase (FIG. 7B), with a significant increase noticeable after 4-6 hours of induction.
To investigate further similarities and differences in the SA-mediated induction of BiP and PR genes, we tested if the presence of light is required for the induction. The rationale for this experiment was derived from the observation that SA inhibits catalase, resulting in an increase of active oxygen species in the plant, which would then induce PR genes such as PR1 (Chen et al, 1993). Despite the fact that the inhibition of catalase activity alone is not the key route by which PR1 is induced during SA-treatment (Chamnongpol et al, 1996), a cooperative interaction of SA and H2O2 might lead to the strong induction of PR1 (Leon et al, 1995, Chen et al, 1995). […] Tobacco plants were thus sprayed with SA (5 mM) and incubated in the presence and absence of light for 6 and 16 hours. […] The data also confirm that BiP mRNA levels increase transiently and a significant decrease in mRNA levels is detectable after 16 hours of treatment (see also FIG. 7).
We have shown that the SA-induced expression of PR1 is inhibited in a concentration dependent fashion by the presence of Erwinia carotovora culture filtrate containing cell wall-degrading enzymes (Vidal et al, 1997). […] Total RNA was extracted and the expression of chaperones was determined in relation to PR1.
In example 6 we have shown that the UPR-induced BiP gene expression is additive to the cell wall-degrading enzyme (CDE) response. […] After floating of the leaves for 2.5 h on this medium, RNA was extracted and BiP gene expression was analysed by Northern blotting. […]

BiP mRNA [2] = experiment: Tunicamycin treatment of tobacco protoplasts, Northern blot of BiP; type: cell-based, Nicotiana tabacum; conditions: tunicamycin 20 μg/mL, 2.5 hrs
Method: To compare the CDE- and UPR-mediated induction of BiP, we wanted to test if both stimuli are additive. […] This is not surprising as protoplasts are prepared with CDEs. These protoplasts were then treated with tunicanycin, to superimpose the UPR onto the CDE response. […] The additional ER stress could trap BiP in malfolded protein complexes, thus making it unavailable to promote PR protein synthesis on the rough ER.
Protoplasts RNAs were extracted as described by Jones et al., (1985). Leaves were ground in frozen liquid nitrogen and transferred to NTES buffer (0.1 M NaCl, 10 mM Tris pH 7.5, 1 mM EDTA, 1% SDS). Protoplasts samples were frozen in liquid nitrogen and thawed in NTES buffer. RNA was extracted after adding an equal volume of phenol/chloroform. Ethanol precipitation was carried out after incubation at −20° C. for 16 hours. The pellet was resuspended and RNA was selectively precipitated with LiCl (2M LiCl) for 2 hours on ice. The pellet was washed with 70% ethanol and resuspended in diethyl pyrocarbonate-treated water. Gel blots of total RNA denatured in formamide and formaldehyde were prepared. RNA was blotted onto Hybond-N membrane (Amersham Corp), as described by the manufacturer. […]

BiP protein levels = experiment: SA spraying of tobacco plants, protein gel blot of BiP; type: in vivo, Nicotiana tabacum; conditions: sprayed with SA 5 mM
Method: It has been shown that SA is involved in the induction of PR genes (reviewed by Malamy and Klessig, 1992) and that this signal molecule also induces the expression of ER chaperones (Denecke et al, 1995). We wanted to investigate whether ER chaperone induction is a consequence of the high synthesis rates of PR genes and used BiP as a model system. Tobacco plants were sprayed with SA (5 mM) and the exact timing of the SA-mediated induction of PR-gene PRI was compared to that of BiP. PR1 was chosen as a representative marker for SA-mediated induction of PR genes as its response to SA is faster and more pronounced than that of acidic chitinase, basic chitinase and basic β-1.3 glucanase (Vidal et al, 1997). […] In contrast SA-induced transcription of PR1 starts only after 6-8 hours and continues to accumulate upto 16 hours after treatment. At this time-point, BiP mRNA levels start to decrease again. […]
Fully expanded leaves were collected and quickly frozen in liquid nitrogen. […] Protein concentrations were determined using Bio-Rad protein assay reagent
Proteins in SDS-polyacrylamide gels were transferred onto a nitrocellulose membrane and then blocked with PBS, 0.5% Tween 20, and 5% milk powder for 1 hr. […] Detection of antigen-antibody complexes was performed with enhanced chemiluminescence (ECL, Amersham Corp), and the images were recorded on film.

Row | Compound | BiP transcription in SA-treated leaves floated on MS medium with tunicamycin (BiP mRNA [1]; 5 mM SA 12 h, then tunicamycin 20 μg/mL 2.5 h) | BiP induction on top of the CDE response in protoplasts (BiP mRNA [2]) | accumulation of BiP mRNA transcripts during SA-treatment in the absence of light (BiP mRNA [1]; SA 5 mM, 6 and 16 hours, dark vs light) | time at which BiP mRNA levels reach a plateau (BiP mRNA [1]; sprayed with SA 5 mM) [h] | time of treatment after which BiP mRNA levels are induced (BiP mRNA [1]; sprayed with SA 5 mM) [h] | time of induction after which a significant increase of BiP protein levels is noticeable (BiP protein levels) [h]
1 | tunicamycin | further induction | further induction |  |  |  | 
2 | O=C(O)c1ccccc1O [SA, Salicylic Acid] |  |  | hardly any reduction | 4 | 2 | 4 to 6
